# The source made the active and inactive calls. The rule behind the calls is not given here.
# Tested on: Felis catus
# Test: Increase in cerebral blood flow in anesthetized cat suprasylvian gyrus at 0.3 mg/kg, iv
# Format: functional, organism-based
# Design: dose 0.3 mg/kg
compound,measurement,value
C[n+]1c2n(c(=O)c3ccccc31)CCc1c-2[nH]c2ccccc12,Activity,Active

# Source: ChEMBL document CHEMBL1149049, “Increased feline cerebral blood flow induced by dehydroevodiamine hydrochloride from Evodia rutaecarpa” (J Nat Prod, 1994)
